Reference: patent US20040171566A1, “Antisense modulation of p38 mitogen activated protein kinase expression” (priority 1999, published 2004)
e = 2'-O-(2-methoxyethyl) (MOE); d = 2'-deoxy (DNA)

What was measured:
rat p38α mRNA = test: Rat p38α mRNA levels in NR-8383 cells, quantitative real-time PCR; format: cell-based; details: 300 nM oligonucleotide with FuGENE 6, 24 hours, mRNA by quantitative real-time PCR, average of two experiments
Excerpt: (§1) Quantitation of p38α mRNA levels was accomplished by real-time quantitative PCR using the ABI PRISM™ 7600, 7700, or 7900 Sequence Detection System (PE-Applied Biosystems, Foster City, Calif.) according to manufacturer's instructions. This is a closed-tube, non-gel-based, fluorescence detection system which allows high-throughput quantitation of polymerase chain reaction (PCR) products in real-time. As opposed to standard PCR in which amplification products are quantitated after the PCR is completed, products in real-time quantitative PCR are quantitated as they accumulate. This is accomplished by including in the PCR reaction an oligonucleotide probe that anneals specifically between the forward and reverse PCR primers, and contains two fluorescent dyes. A reporter dye (e.g., FAM or JOE, obtained from either PE-Applied Biosystems, Foster City, Calif., Operon Technologies Inc., Alameda, Calif. or Integrated DNA Technologies Inc., Coralville, Iowa) is attached to the 5′ end of the probe and a quencher dye (e.g., TAMRA, obtained from either PE-Applied Biosystems, Foster City, Calif., Operon Technologies Inc., Alameda, Calif. or Integrated DNA Technologies Inc., Coralville, Iowa) is attached to the 3′ end of the probe. When the probe and dyes are intact, reporter dye emission is quenched by the proximity of the 3′ quencher dye. During amplification, annealing of the probe to the target sequence creates a substrate that can be cleaved by the 5′-exonuclease activity of Taq polymerase. […] With each cycle, additional reporter dye molecules are cleaved from their respective probes, and the fluorescence intensity is monitored at regular intervals by laser optics built into the ABI PRISM™ Sequence Detection System. In each assay, a series of parallel reactions containing serial dilutions of mRNA from untreated control samples generates a standard curve that is used to quantitate the percent inhibition after antisense oligonucleotide treatment of test samples.
(§2) Prior to quantitative PCR analysis, primer-probe sets specific to the target gene being measured are evaluated for their ability to be “multiplexed” with a GAPDH amplification reaction. In multiplexing, both the target gene and the internal standard gene GAPDH are amplified concurrently in a single sample. In this analysis, mRNA isolated from untreated cells is serially diluted. Each dilution is amplified in the presence of primer-probe sets specific for GAPDH only, target gene only (“single-plexing”), or both (multiplexing). Following PCR amplification, standard curves of GAPDH and target mRNA signal as a function of dilution are generated from both the single-plexed and multiplexed samples. If both the slope and correlation coefficient of the GAPDH and target signals generated from the multiplexed samples fall within 10% of their corresponding values generated from the single-plexed samples, the primer-probe set specific for that target is deemed multiplexable. Other methods of PCR are also known in the art.
(§3) PCR reagents were obtained from Invitrogen Corporation, (Carlsbad, Calif.). […] The RT reaction was carried out by incubation for 30 minutes at 48° C. Following a 10 minute incubation at 95° C. to activate the PLATINUM® Taq, 40 cycles of a two-step PCR protocol were carried out: 95° C. for 15 seconds (denaturation) followed by 60° C. for 1.5 minutes (annealing/extension).
(§4) Gene target quantities obtained by real time RT-PCR are normalized using either the expression level of GAPDH, a gene whose expression is constant, or by quantifying total RNA using RiboGreen™ (Molecular Probes, Inc. Eugene, Oreg.). GAPDH expression is quantified by real time RT-PCR, by being run simultaneously with the target, multiplexing, or separately. Total RNA is quantified using RiboGreen™ RNA quantification reagent (Molecular Probes, Inc. Eugene, Oreg.). Methods of RNA quantification by RiboGreen™ are taught in Jones, L. J., et al, (Analytical Biochemistry, 1998, 265, 368-374). […]

mouse p38α mRNA = test: Mouse p38α mRNA levels in bEND.3 cells, quantitative real-time PCR; format: cell-based; design: % Inhib. mouse p38α: concentration or dose not given beside the values; details: bEND.3 cells, mRNA by quantitative real-time PCR, average of two experiments
Excerpt: as §1, §2, §3, §4

Substance	% Inhib. rat p38α (rat p38α mRNA) [%]	% Inhib. mouse p38α (mouse p38α mRNA) [%]
320130 (antisense AGGACTCCATTTCTTCTTGG; sugars from the 5' end e5 d10 e5, all phosphorothioate, methylation of C not given here) [compound 320130]	61	81
320131 (antisense CTTCCCCTCACAGTGAAGTG; sugars from the 5' end e5 d10 e5, all phosphorothioate, methylation of C not given here) [compound 320131]	39	92
320132 (antisense TATTTGGAGAGTTCCCATGA; sugars from the 5' end e5 d10 e5, all phosphorothioate, methylation of C not given here) [compound 320132]	56	85
320133 (antisense ACTTGAATGGTATTTGGAGA; sugars from the 5' end e5 d10 e5, all phosphorothioate, methylation of C not given here) [compound 320133]	61	52
320134 (antisense AACAAGAGGCACTTGAATGG; sugars from the 5' end e5 d10 e5, all phosphorothioate, methylation of C not given here) [compound 320134]	74	85
320135 (antisense ACCCCCTTCCACCATGAAGG; sugars from the 5' end e5 d10 e5, all phosphorothioate, methylation of C not given here) [compound 320135]	47	95
320136 (antisense AGCAGGCAGACTGCCAAGGA; sugars from the 5' end e5 d10 e5, all phosphorothioate, methylation of C not given here) [compound 320136]	34	83
320137 (antisense CACACACATCCCTAAGGAGA; sugars from the 5' end e5 d10 e5, all phosphorothioate, methylation of C not given here) [compound 320137]	44	80
320138 (antisense TAAAGGCAGGGCCACAGGAG; sugars from the 5' end e5 d10 e5, all phosphorothioate, methylation of C not given here) [compound 320138]	46	87
320139 (antisense GCAGCCTCTCTCTGTCACTG; sugars from the 5' end e5 d10 e5, all phosphorothioate, methylation of C not given here) [compound 320139]	61	87
320140 (antisense GGGATAGCCTCAGACCTGAA; sugars from the 5' end e5 d10 e5, all phosphorothioate, methylation of C not given here) [compound 320140]	37	61
320141 (antisense GCATGGCTGAGGGATAGCCT; sugars from the 5' end e5 d10 e5, all phosphorothioate, methylation of C not given here) [compound 320141]	73	83
320142 (antisense GAGCCAGTTGGTTCTCTTGG; sugars from the 5' end e5 d10 e5, all phosphorothioate, methylation of C not given here) [compound 320142]	53	85
320143 (antisense AGGCACAAACAGACTGACAG; sugars from the 5' end e5 d10 e5, all phosphorothioate, methylation of C not given here) [compound 320143]	54	88
320144 (antisense CCTTTTAAGGCACAAACAGA; sugars from the 5' end e5 d10 e5, all phosphorothioate, methylation of C not given here) [compound 320144]	39	83
320145 (antisense GACCTCTGCACTGAGGTGAA; sugars from the 5' end e5 d10 e5, all phosphorothioate, methylation of C not given here) [compound 320145]	44	52
320146 (antisense GGCACTGGAGACCTCTGCAC; sugars from the 5' end e5 d10 e5, all phosphorothioate, methylation of C not given here) [compound 320146]	57	74
320147 (antisense AGAGCACAGCATGCAAACAC; sugars from the 5' end e5 d10 e5, all phosphorothioate, methylation of C not given here) [compound 320147]	43	66
320148 (antisense CCAGGGCTTCCAGAAGACAG; sugars from the 5' end e5 d10 e5, all phosphorothioate, methylation of C not given here) [compound 320148]	33	78
320149 (antisense AAGGAGCTCCTGGCTTCAGG; sugars from the 5' end e5 d10 e5, all phosphorothioate, methylation of C not given here) [compound 320149]	25	74
320150 (antisense GGATTCCTACAACATACAAA; sugars from the 5' end e5 d10 e5, all phosphorothioate, methylation of C not given here) [compound 320150]	62	82
320151 (antisense GAAGGAACCACACTCTCTAA; sugars from the 5' end e5 d10 e5, all phosphorothioate, methylation of C not given here) [compound 320151]	47	90
320152 (antisense TTTGCCCTTTCTCCCCATCA; sugars from the 5' end e5 d10 e5, all phosphorothioate, methylation of C not given here) [compound 320152]	66	93
320153 (antisense AATATTAAAATAATTTGCCC; sugars from the 5' end e5 d10 e5, all phosphorothioate, methylation of C not given here) [compound 320153]	22	0
320154 (antisense TCATGTTTATAAAGGTGAAA; sugars from the 5' end e5 d10 e5, all phosphorothioate, methylation of C not given here) [compound 320154]	50	52
320155 (antisense CCCTGAGGATTCATGTTTAT; sugars from the 5' end e5 d10 e5, all phosphorothioate, methylation of C not given here) [compound 320155]	73	93
